Test results: patent US10131652B2, “Pyrimidinyloxy benzene derivatives as herbicides” (E. I. DU PONT DE NEMOURS AND COMPANY, priority 2014, dated 2018)
Like-named read-outs stand apart in the source and are kept apart here.

What was measured:
Test in all cases: Test E pre-/postemergence plant response
Format in all cases: in vivo
[1] = test system: Italian ryegrass (Lolium multiflorum); details: scale 0 to 100, read-out: Plant response rating, Ryegrass, Italian; for pest or weed control at 16 g/ha: 16 g ai/ha; for pest or weed control at 31 g/ha: 31 g ai/ha; for pest or weed control at 62 g/ha: 62 g ai/ha; for pest or weed control at 125 g/ha: 125 g ai/ha
How it was run: (§1)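 Pre-emergence: seeds sown in silt loam soil and sprayed with test chemicals in a non-phytotoxic solvent/surfactant mix. Post-emergence: plants at 2–18 cm (1- to 4-leaf stage) in peat/vermiculite medium treated with the same formulation. Visual rating versus controls after 7–21 days, 0 (no effect) to 100 (complete control).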

[2] = test system: blackgrass (Alopecurus myosuroides); details: scale 0 to 100, read-out: Plant response rating, Blackgrass; for pest or weed control at 16 g/ha: 16 g ai/ha; for pest or weed control at 31 g/ha: 31 g ai/ha; for pest or weed control at 62 g/ha: 62 g ai/ha; for pest or weed control at 125 g/ha: 125 g ai/ha
How it was run: as §1

[3] = test system: canarygrass (Phalaris minor); details: scale 0 to 100, read-out: Plant response rating, Canarygrass; for pest or weed control at 16 g/ha: 16 g ai/ha; for pest or weed control at 31 g/ha: 31 g ai/ha; for pest or weed control at 62 g/ha: 62 g ai/ha; for pest or weed control at 125 g/ha: 125 g ai/ha
How it was run: as §1

[4] = test system: chickweed (common chickweed, Stellaria media); details: scale 0 to 100, read-out: Plant response rating, Chickweed; for pest or weed control at 16 g/ha: 16 g ai/ha; for pest or weed control at 31 g/ha: 31 g ai/ha; for pest or weed control at 62 g/ha: 62 g ai/ha; for pest or weed control at 125 g/ha: 125 g ai/ha
How it was run: as §1

[5] = test system: deadnettle (henbit deadnettle, Lamium amplexicaule); details: pre-emergence, Preemergence, scale 0 to 100, read-out: Plant response rating, Deadnettle
How it was run: as §1

[6] = test system: field violet (Viola arvensis); details: scale 0 to 100, read-out: Plant response rating, Field Violet; for pest or weed control at 16 g/ha: 16 g ai/ha; for pest or weed control at 31 g/ha: 31 g ai/ha; for pest or weed control at 62 g/ha: 62 g ai/ha; for pest or weed control at 125 g/ha: 125 g ai/ha
How it was run: as §1

[7] = test system: galium (catchweed bedstraw, Galium aparine); details: scale 0 to 100, read-out: Plant response rating, Galium; for pest or weed control at 16 g/ha: 16 g ai/ha; for pest or weed control at 31 g/ha: 31 g ai/ha; for pest or weed control at 62 g/ha: 62 g ai/ha; for pest or weed control at 125 g/ha: 125 g ai/ha
How it was run: as §1

[8] = test system: lambsquarters (Chenopodium album); details: scale 0 to 100, read-out: Plant response rating, Lambsquarters; for pest or weed control at 16 g/ha: 16 g ai/ha; for pest or weed control at 31 g/ha: 31 g ai/ha; for pest or weed control at 62 g/ha: 62 g ai/ha; for pest or weed control at 125 g/ha: 125 g ai/ha
How it was run: as §1

[9] = test system: pigweed (Amaranthus retroflexus); details: scale 0 to 100, read-out: Plant response rating, Pigweed; for pest or weed control at 16 g/ha: 16 g ai/ha; for pest or weed control at 31 g/ha: 31 g ai/ha; for pest or weed control at 62 g/ha: 62 g ai/ha; for pest or weed control at 125 g/ha: 125 g ai/ha
How it was run: as §1

[10] = test system: wild radish (Raphanus raphanistrum); details: scale 0 to 100, read-out: Plant response rating, Radish, Wild; for pest or weed control at 16 g/ha: 16 g ai/ha; for pest or weed control at 31 g/ha: 31 g ai/ha; for pest or weed control at 62 g/ha: 62 g ai/ha; for pest or weed control at 125 g/ha: 125 g ai/ha
How it was run: as §1

[11] = test system: winter barley (Hordeum vulgare); details: scale 0 to 100, read-out: Plant response rating, Barley, Winter; for plant injury at 16 g/ha: 16 g ai/ha; for plant injury at 31 g/ha: 31 g ai/ha; for plant injury at 62 g/ha: 62 g ai/ha; for plant injury at 125 g/ha: 125 g ai/ha
How it was run: as §1

Fc1cccc(Oc2ncc(Cl)cn2)c1-c1cc(C(F)F)no1 [Compound 144, 5-chloro-2-[2-[3-(difluoromethyl)-5-isoxazolyl]-3-fluorophenoxy]pyrimidine]
pest or weed control at 16 g/ha ([1]; post-emergence, Postemergence): 5% | pest or weed control at 31 g/ha ([1]; post-emergence, Postemergence): 15% | pest or weed control at 62 g/ha ([1]; post-emergence, Postemergence): 40% | pest or weed control at 125 g/ha ([1]; post-emergence, Postemergence): 65% | pest or weed control at 16 g/ha ([1]; pre-emergence, Preemergence): 10% | pest or weed control at 31 g/ha ([1]; pre-emergence, Preemergence): 25% | pest or weed control at 62 g/ha ([1]; pre-emergence, Preemergence): 70% | pest or weed control at 125 g/ha ([1]; pre-emergence, Preemergence): 100% | pest or weed control at 16 g/ha ([2]; post-emergence, Postemergence): 25% | pest or weed control at 31 g/ha ([2]; post-emergence, Postemergence): 50% | pest or weed control at 62 g/ha ([2]; post-emergence, Postemergence): 60% | pest or weed control at 125 g/ha ([2]; post-emergence, Postemergence): 85% | pest or weed control at 16 g/ha ([2]; pre-emergence, Preemergence): 15% | pest or weed control at 31 g/ha ([2]; pre-emergence, Preemergence): 75% | pest or weed control at 62 g/ha ([2]; pre-emergence, Preemergence): 98% | pest or weed control at 125 g/ha ([2]; pre-emergence, Preemergence): 100% | pest or weed control at 16 g/ha ([3]; post-emergence, Postemergence): 35% | pest or weed control at 31 g/ha ([3]; post-emergence, Postemergence): 60% | pest or weed control at 62 g/ha ([3]; post-emergence, Postemergence): 65% | pest or weed control at 125 g/ha ([3]; post-emergence, Postemergence): 85% | pest or weed control at 16 g/ha ([3]; pre-emergence, Preemergence): 35% | pest or weed control at 31 g/ha ([3]; pre-emergence, Preemergence): 80% | pest or weed control at 62 g/ha ([3]; pre-emergence, Preemergence): 100% | pest or weed control at 125 g/ha ([3]; pre-emergence, Preemergence): 100% | pest or weed control at 16 g/ha ([4]; post-emergence, Postemergence): 85% | pest or weed control at 31 g/ha ([4]; post-emergence, Postemergence): 100% | pest or weed control at 62 g/ha ([4]; post-emergence, Postemergence): 100% | pest or weed control at 125 g/ha ([4]; post-emergence, Postemergence): 100% | pest or weed control at 16 g/ha ([4]; pre-emergence, Preemergence): 100% | pest or weed control at 31 g/ha ([4]; pre-emergence, Preemergence): 100% | pest or weed control at 62 g/ha ([4]; pre-emergence, Preemergence): 100% | pest or weed control at 125 g/ha ([4]; pre-emergence, Preemergence): 100% | pest or weed control at 16 g/ha ([5]; 16 g ai/ha): 90% | pest or weed control at 31 g/ha ([5]; 31 g ai/ha): 100% | pest or weed control at 62 g/ha ([5]; 62 g ai/ha): 100% | pest or weed control at 125 g/ha ([5]; 125 g ai/ha): 100% | pest or weed control at 16 g/ha ([6]; post-emergence, Postemergence): 95% | pest or weed control at 31 g/ha ([6]; post-emergence, Postemergence): 90% | pest or weed control at 62 g/ha ([6]; post-emergence, Postemergence): 100% | pest or weed control at 125 g/ha ([6]; post-emergence, Postemergence): 100% | pest or weed control at 16 g/ha ([6]; pre-emergence, Preemergence): 95% | pest or weed control at 31 g/ha ([6]; pre-emergence, Preemergence): 100% | pest or weed control at 62 g/ha ([6]; pre-emergence, Preemergence): 100% | pest or weed control at 125 g/ha ([6]; pre-emergence, Preemergence): 100% | pest or weed control at 16 g/ha ([7]; post-emergence, Postemergence): 80% | pest or weed control at 31 g/ha ([7]; post-emergence, Postemergence): 95% | pest or weed control at 62 g/ha ([7]; post-emergence, Postemergence): 100% | pest or weed control at 125 g/ha ([7]; post-emergence, Postemergence): 100% | pest or weed control at 16 g/ha ([7]; pre-emergence, Preemergence): 20% | pest or weed control at 31 g/ha ([7]; pre-emergence, Preemergence): 70% | pest or weed control at 62 g/ha ([7]; pre-emergence, Preemergence): 100% | pest or weed control at 125 g/ha ([7]; pre-emergence, Preemergence): 100% | pest or weed control at 16 g/ha ([8]; post-emergence, Postemergence): 80% | pest or weed control at 31 g/ha ([8]; post-emergence, Postemergence): 95% | pest or weed control at 62 g/ha ([8]; post-emergence, Postemergence): 98% | pest or weed control at 125 g/ha ([8]; post-emergence, Postemergence): 100% | pest or weed control at 16 g/ha ([8]; pre-emergence, Preemergence): 100% | pest or weed control at 31 g/ha ([8]; pre-emergence, Preemergence): 100% | pest or weed control at 62 g/ha ([8]; pre-emergence, Preemergence): 100% | pest or weed control at 125 g/ha ([8]; pre-emergence, Preemergence): 100% | pest or weed control at 16 g/ha ([9]; post-emergence, Postemergence): 98% | pest or weed control at 31 g/ha ([9]; post-emergence, Postemergence): 100% | pest or weed control at 62 g/ha ([9]; post-emergence, Postemergence): 100% | pest or weed control at 125 g/ha ([9]; post-emergence, Postemergence): 100% | pest or weed control at 16 g/ha ([9]; pre-emergence, Preemergence): 100% | pest or weed control at 31 g/ha ([9]; pre-emergence, Preemergence): 100% | pest or weed control at 62 g/ha ([9]; pre-emergence, Preemergence): 100% | pest or weed control at 125 g/ha ([9]; pre-emergence, Preemergence): 100% | pest or weed control at 16 g/ha ([10]; post-emergence, Postemergence): 100% | pest or weed control at 31 g/ha ([10]; post-emergence, Postemergence): 100% | pest or weed control at 62 g/ha ([10]; post-emergence, Postemergence): 100% | pest or weed control at 125 g/ha ([10]; post-emergence, Postemergence): 100% | pest or weed control at 16 g/ha ([10]; pre-emergence, Preemergence): 80% | pest or weed control at 31 g/ha ([10]; pre-emergence, Preemergence): 80% | pest or weed control at 62 g/ha ([10]; pre-emergence, Preemergence): 100% | pest or weed control at 125 g/ha ([10]; pre-emergence, Preemergence): 100% | plant injury at 16 g/ha ([11]; post-emergence, Postemergence): 30% | plant injury at 31 g/ha ([11]; post-emergence, Postemergence): 20% | plant injury at 62 g/ha ([11]; post-emergence, Postemergence): 35% | plant injury at 125 g/ha ([11]; post-emergence, Postemergence): 45% | plant injury at 16 g/ha ([11]; pre-emergence, Preemergence): 30% | plant injury at 31 g/ha ([11]; pre-emergence, Preemergence): 35% | plant injury at 62 g/ha ([11]; pre-emergence, Preemergence): 55% | plant injury at 125 g/ha ([11]; pre-emergence, Preemergence): 55%
